Data from PubChem BioAssay AID328 (DTP/NCI, 2004).
“And” between values parts separate entries of the source, which are not always exact repeats. Equal values may be shown once. Inconclusive results and toxic doses are left out.

System: BDF1 mice, P388 leukemia ip, median survival T/C
Test: NCI In Vivo Anticancer Drug Screen. Data for tumor model P388 Leukemia (intraperitoneal) in B6D2F1 (BDF1) mice
Details: endpoint: median survival time, higher = longer survival
Summary of the method: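 Steps: implant the tumour, treat one group with compound and another with vehicle, record survival, then divide treated by control.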

[1] = dose: 100.0 mg/kg/injection, schedule: Q01DX009 (ip), vehicle: Klucel (hydroxypropylcellulose) (HPC)
[2] = dose: 200.0 mg/kg/injection, schedule: Q01DX009 (ip), vehicle: Klucel (hydroxypropylcellulose) (HPC)
[3] = dose: 400.0 mg/kg/injection, schedule: Q01DX009 (ip), vehicle: Klucel (hydroxypropylcellulose) (HPC)
[4] = dose: 100.0 mg/kg/injection, schedule: Q04DX003 (ip), vehicle: saline with Tween-80
[5] = dose: 200.0 mg/kg/injection, schedule: Q04DX003 (ip), vehicle: saline with Tween-80
[6] = dose: 400.0 mg/kg/injection, schedule: Q04DX003 (ip), vehicle: saline with Tween-80
[7] = dose: 100.0 mg/kg/injection, schedule: Q04DX003 (ip), vehicle: Klucel (hydroxypropylcellulose) (HPC)
[8] = dose: 200.0 mg/kg/injection, schedule: Q04DX003 (ip), vehicle: Klucel (hydroxypropylcellulose) (HPC)
[9] = dose: 400.0 mg/kg/injection, schedule: Q04DX003 (ip), vehicle: Klucel (hydroxypropylcellulose) (HPC)
[10] = dose: 50.0 mg/kg/injection, schedule: Q04DX003 (ip), vehicle: Klucel (hydroxypropylcellulose) (HPC)
[11] = dose: 12.5 mg/kg/injection, schedule: Q04DX003 (ip), vehicle: saline with Tween-80
[12] = dose: 50.0 mg/kg/injection, schedule: Q01DX009 (ip), vehicle: saline with Tween-80
[13] = dose: 100.0 mg/kg/injection, schedule: Q01DX009 (ip), vehicle: saline with Tween-80
[14] = dose: 200.0 mg/kg/injection, schedule: Q01DX009 (ip), vehicle: saline with Tween-80
[15] = dose: 25.0 mg/kg/injection, schedule: Q01DX009 (ip), vehicle: saline with Tween-80

O=Cc1ccc(/C=C2\NC(=O)NC2=O)cc1
T/C (dose: 3.12 mg/kg/injection, schedule: Q01DX009 (ip), vehicle: water): 89 % of control
T/C (dose: 6.25 mg/kg/injection, schedule: Q01DX009 (ip), vehicle: Klucel (hydroxypropylcellulose) (HPC)): 100 % of control
T/C (dose: 6.25 mg/kg/injection, schedule: Q01DX009 (ip), vehicle: water): 106 % of control
T/C (dose: 12.5 mg/kg/injection, schedule: Q01DX009 (ip), vehicle: Klucel (hydroxypropylcellulose) (HPC)): 95 % of control
T/C (dose: 12.5 mg/kg/injection, schedule: Q01DX009 (ip), vehicle: water): 120 % of control
T/C (dose: 25.0 mg/kg/injection, schedule: Q01DX009 (ip), vehicle: Klucel (hydroxypropylcellulose) (HPC)): 92 % of control
T/C (dose: 25.0 mg/kg/injection, schedule: Q01DX009 (ip), vehicle: water): 121 % of control
T/C (dose: 50.0 mg/kg/injection, schedule: Q01DX009 (ip), vehicle: Klucel (hydroxypropylcellulose) (HPC)): 92 % of control
T/C (dose: 50.0 mg/kg/injection, schedule: Q04DX003 (ip), vehicle: water): 103 % of control
T/C (dose: 100.0 mg/kg/injection, schedule: Q04DX003 (ip), vehicle: water): 87 % of control
T/C (dose: 200.0 mg/kg/injection, schedule: Q04DX003 (ip), vehicle: water): 119 % of control

Nc1c(Br)cc(Br)c2ccccc12
T/C [1]: 95 % of control
T/C [2]: 113 % of control
T/C [3]: 109 % of control

CCC12C=CCN3CCC4(c5c(C(c6ccc(OC)cc6)c6c(CN(C)C)c7ccccc7n6C)cc(OC)cc5N(C)C4C(O)(C(=O)OC)C1OC(C)=O)C32 (centres undefined)
T/C (dose: 0.3 mg/kg/injection, schedule: Q01DX009 (ip), vehicle: saline): 93 % of control
T/C (dose: 0.6 mg/kg/injection, schedule: Q01DX009 (ip), vehicle: saline): 98 % of control
T/C (dose: 4.0 mg/kg/injection, schedule: Q01DX009 (ip), vehicle: saline): 97 % of control
T/C (dose: 8.0 mg/kg/injection, schedule: Q01DX009 (ip), vehicle: saline): 96 % of control
T/C (dose: 15.0 mg/kg/injection, schedule: Q01DX009 (ip), vehicle: saline): 107 % of control
T/C (dose: 16.0 mg/kg/injection, schedule: Q01DX009 (ip), vehicle: saline): 95 % of control
T/C (dose: 60.0 mg/kg/injection, schedule: Q01DX009 (ip), vehicle: saline): 123 % of control

CCOC(=O)NC(C)(C)CN(C(=O)OCC)c1ccccc1
T/C (dose: 44.0 mg/kg/injection, schedule: Q04DX003 (ip), vehicle: saline with Tween-80): 95 % of control
T/C (dose: 66.0 mg/kg/injection, schedule: Q04DX003 (ip), vehicle: saline with Tween-80): 104 % of control
T/C [4]: 90 % of control
T/C (dose: 150.0 mg/kg/injection, schedule: Q04DX003 (ip), vehicle: saline with Tween-80): 95 % of control

Nc1ccc(SCc2nc3cccc4c3n2CCC4)cc1
T/C [4]: 91 % of control
T/C [5]: 95 % of control
T/C [6]: 95 % of control

C=Cn1cnc2c(N)ncnc21
T/C [4]: 103 % of control
T/C [5]: 113 % of control
T/C [6]: 106 % of control

CC(/C=N/N=C(N)N)=N/N=C(N)N
T/C (dose: 100.0 mg/kg/injection, schedule: Q01DX009 (ip), vehicle: saline): 150 % of control
T/C (dose: 150.0 mg/kg/injection, schedule: Q01DX009 (ip), vehicle: saline with Tween-80): 90 % of control

CC(=O)c1cccc(N)c1
T/C (dose: 100.0 mg/kg/injection, schedule: Q01DX001 (ip), vehicle: Klucel (hydroxypropylcellulose) (HPC)): 104 % of control
T/C [1]: 100 % of control
T/C [7]: 100 % of control
T/C (dose: 200.0 mg/kg/injection, schedule: Q01DX001 (ip), vehicle: Klucel (hydroxypropylcellulose) (HPC)): 100 % of control
T/C [2]: 91 % of control
T/C [8]: 109 % of control
T/C (dose: 400.0 mg/kg/injection, schedule: Q01DX001 (ip), vehicle: Klucel (hydroxypropylcellulose) (HPC)): 113 % of control
T/C [3]: 95 % of control
T/C [9]: 109 % of control

O=C(O)c1cc2ccccc2c2cc(Br)ccc12
T/C [4]: 100 % of control
T/C [5]: 104 % of control

COc1cc(C)c(Cl)c(C)c1C(C)=O
T/C [10]: 104 % of control
T/C [7]: 95 % of control
T/C [8]: 86 % of control

C(=N\Nc1nnn(Cc2ccccc2)n1)/c1ccccc1
T/C [4]: 90 % of control
T/C [5]: 95 % of control
T/C [6]: 95 % of control

COc1ccc(CC2c3cc(OC)c(OC)cc3CC[N+]2(C)C)cc1OC (centres undefined)
T/C (dose: 12.5 mg/kg/injection, schedule: Q01DX009 (ip), vehicle: saline sonified): 108 % of control
T/C (dose: 25.0 mg/kg/injection, schedule: Q01DX009 (ip), vehicle: saline sonified): 100 % of control
T/C (dose: 50.0 mg/kg/injection, schedule: Q01DX009 (ip), vehicle: saline sonified): 91 % of control

O=C1C(Cl)=CC(=NS(=O)(=O)c2ccccc2)C=C1Cl
T/C (dose: 3.13 mg/kg/injection, schedule: Q04DX003 (ip), vehicle: saline with Tween-80): 110 % of control
T/C (dose: 6.25 mg/kg/injection, schedule: Q04DX003 (ip), vehicle: saline with Tween-80): 110 % of control
T/C [11]: 110 % of control

ClC(c1ccccc1)(c1ccccc1)c1ccccc1
T/C (dose: 100.0 mg/kg/injection, schedule: Q04DX003 (ip), vehicle: other): 100 % of control
T/C (dose: 200.0 mg/kg/injection, schedule: Q04DX003 (ip), vehicle: other): 108 % of control
T/C (dose: 400.0 mg/kg/injection, schedule: Q04DX003 (ip), vehicle: other): 104 % of control

CCC(=O)/C(=C\c1ccccc1Cl)C(C)=O
T/C [12]: 108 % of control
T/C [13]: 116 % of control
T/C [14]: 120 % of control

c1ccc2sc(SSN3CC4CCC(CC4)C3)nc2c1
T/C [12]: 102 % of control and 122 % of control

O=C(O)c1ccc(COc2ccc([N+](=O)[O-])cc2Cl)cc1
T/C [12]: 91 % of control
T/C [13]: 100 % of control
T/C [14]: 100 % of control

CCC(=O)O[C@H]1CC[C@H]2[C@@H]3CCC4=CC(=O)C[C@]4(C)[C@H]3CC[C@]12C
T/C [12]: 100 % of control
T/C [13]: 100 % of control
T/C [4]: 110 % of control
T/C [14]: 113 % of control
T/C [5]: 105 % of control

CC12CCC(OC3OC(CO)C(O)C(O)C3O)CC1CCC1C2CCC2(C)C(C3=CC(=O)OC3)CCC12O (centres undefined)
T/C (dose: 40.0 mg/kg/injection, schedule: Q01DX009 (ip), vehicle: saline): 86 % of control
T/C (dose: 80.0 mg/kg/injection, schedule: Q01DX009 (ip), vehicle: saline): 86 % of control
T/C (dose: 160.0 mg/kg/injection, schedule: Q01DX009 (ip), vehicle: saline): 95 % of control

CS(=O)(=O)OCC(=O)NCC(O)CNC(=O)COS(C)(=O)=O
T/C (dose: 78.0 mg/kg/injection, schedule: Q04DX003 (ip), vehicle: saline with Tween-80): 150 % of control
T/C (dose: 177.0 mg/kg/injection, schedule: Q04DX003 (ip), vehicle: saline with Tween-80): 161 % of control
T/C (dose: 264.0 mg/kg/injection, schedule: Q04DX003 (ip), vehicle: saline with Tween-80): 231 % of control and 157 % of control
T/C [6]: 209 % of control

COc1cc(Br)c(/C=C/[N+](=O)[O-])cc1OC
T/C [11]: 105 % of control
T/C (dose: 25.0 mg/kg/injection, schedule: Q04DX003 (ip), vehicle: saline with Tween-80): 105 % of control and 107 % of control
T/C (dose: 50.0 mg/kg/injection, schedule: Q04DX003 (ip), vehicle: saline with Tween-80): 113 % of control
T/C [4]: 123 % of control

CC(=O)C1CCCC23CC(CC12)C(C)(C)C3OC=O (centres undefined)
T/C [7]: 90 % of control
T/C [8]: 100 % of control
T/C [9]: 109 % of control

CN(/N=C/C(O)C(O)C(O)CO)c1ccccc1 (centres undefined)
T/C [10]: 105 % of control
T/C [7]: 105 % of control
T/C [8]: 100 % of control

COc1cccc(/C=N/NC(=O)C2CCN(C(=S)NC3CC4C=CC3C4)CC2)c1O (centres undefined)
T/C (dose: 1.56 mg/kg/injection, schedule: Q01DX009 (ip), vehicle: saline with Tween-80): 90 % of control
T/C (dose: 3.12 mg/kg/injection, schedule: Q01DX009 (ip), vehicle: saline with Tween-80): 89 % of control
T/C (dose: 6.25 mg/kg/injection, schedule: Q01DX009 (ip), vehicle: saline with Tween-80): 87 % of control and 92 % of control
T/C (dose: 12.5 mg/kg/injection, schedule: Q01DX009 (ip), vehicle: saline with Tween-80): 89 % of control
T/C [15]: 92 % of control
T/C [12]: 101 % of control

NC(N)=NC(N)=Nc1ccc(Cl)c(Cl)c1
T/C [15]: 98 % of control
T/C [12]: 121 % of control

CCC(CC)C(O)C(C)C(C)O (centres undefined)
T/C [4]: 100 % of control
T/C [5]: 100 % of control
T/C [6]: 100 % of control
